From publication PMC6441019, “Prospective discovery of small molecule enhancers of an E3 ligase-substrate interaction” (Nature Communications, 2019)

How the values were obtained:
[1] = molecular target: T1, pSer33/S37A β-catenin peptide binding to β-TrCP (Homo sapiens, UniProt P35222+Q9Y297, S37A); test: TR-FRET peptide binding and cooperativity assay, pSer33/S37A peptide
T1 construct: titrating BODIPY-FL-labeled β-catenin peptides (residues 17-48) against 300 pM β-TrCP; 6xHis-SMT3 (N, cleaved yes); made in house; host or cells: E. coli (co-expressed with BirA)
Protocol: (§1) Compounds were incubated in a 20 μl reaction volume with 300 pM biotinylated β-TrCP/Skp1 preincubated with 1.2 nM terbium-coupled streptavidin (Cisbio) and BODIPY-FL labeled β-catenin peptides (see figure legends for peptide details) in a white 384-well microplate (Perkin Elmer ProxiPlate), using a PBS buffer containing 0.01% Triton X-100 and 2 mM DTT with 2% final DMSO. […] Following 1-h incubation, plates were read for TR-FRET signal after excitation at 320 nm and read at 520 and 620 nm using an EnVision plate reader (Perkin Elmer). TR-FRET signal was calculated using a 520/620 nm ratio. Binding and enhancement data were fit to a standard Hill equation (Y = Bmin + (Bmax − Bmin)(X^h)/(X^h + EC50^h)) in Prism (GraphPad). Errors are standard error of the fit.

[2] = molecular target: T2, S33E/S37A β-catenin peptide binding to β-TrCP (Homo sapiens, UniProt P35222+Q9Y297, S33E/S37A); test: TR-FRET binding enhancement assay, S33E/S37A peptide; conditions: 1% binding saturation
T2 construct: titrating BODIPY-FL-labeled β-catenin peptides (residues 17-48) against 300 pM β-TrCP; 6xHis-SMT3 (N, cleaved yes); made in house; host or cells: E. coli (co-expressed with BirA)
Protocol: as §1

[3] = molecular target: T3, pSer33/S37A β-catenin peptide ubiquitylation by SCFβ-TrCP (Homo sapiens, UniProt P35222+Q9Y297, S37A); test: In vitro ubiquitylation of pSer33/S37A β-catenin peptide; type: biochemical; conditions: forms long ubiquitin chains
T3 construct: fluorescently-labeled β-catenin peptide (residues 17–60; as indicated) was ubiquitylated; 6xHis-SMT3 (N, cleaved yes); made in house; host or cells: E. coli (β-TrCP1/Skp1); E. coli or SF9 (Cul1-Rbx1)
Protocol: (§2) Four micromolar of fluorescently-labeled β-catenin peptide (residues 17–60) were ubiquitylated in a buffer containing 25 mM Tris Cl (pH 7.5), 50 mM NaCl, 5 mM MgCl2, 2 mM ATP, and 1 mM DTT at room temperature in the presence of 62.5 μM Ubiquitin, 125 nM Ube1, 1.75 μM Cdc34A, and 100 nM neddylated SCF^β-TrCP in the presence or absence of compound (as indicated). Typically, individual reaction mixes with either Ubiquitin, Ube1 and Cdc34A or β-catenin, SCF^β-TrCP and compound were preincubated and subsequently mixed to initiate β-catenin ubiquitylation. Reactions were quenched by SDS loading buffer, resolved by SDS-PAGE and imaged for fluorescence. For full length β-catenin protein ubiquitylation 400 nM β-catenin and 400 nM SCF^β-TrCP were used instead.

[4] = molecular target: T4, full-length Ser33/S37A β-catenin protein ubiquitylation by SCFβ-TrCP (Homo sapiens, UniProt P35222+Q9Y297, S37A); test: In vitro ubiquitylation of full-length Ser33/S37A β-catenin protein; type: biochemical
T4 construct: 400 nM purified full-length S37A mutant β-catenin protein was ubiquitylated; 6xHis-SMT3 (N, cleaved yes); host or cells: HEK293T (β-catenin); E. coli (β-TrCP1/Skp1); E. coli or SF9 (Cul1-Rbx1)
Protocol: as §2

[5] = molecular target: T5, endogenous S37A mutant β-catenin (Homo sapiens, UniProt P35222+Q9Y297, S37A); test: Degradation of endogenous S37A β-catenin in TOV-112D cells; type: cell-based
T5 construct: host or cells: TOV-112D

[6] = molecular target: T6, S33E/S37A β-catenin:β-TrCP interaction (Homo sapiens, UniProt P35222+Q9Y297, S33E/S37A); test: Lysate pulldown with recombinant β-catenin (HEK293T lysate); conditions: anti-myc pulldown
T6 construct: a ternary complex with the full-length S33E/S37A β-catenin and β-TrCP in cells; evaluated for their ability to pull down endogenous β-TrCP; expressed in transfected cells; host or cells: HEK293T (transient, FuGeneHD); β-TrCP endogenous
Protocol: Lysate pulldown with recombinant β-catenin: HEK293T cells were lysed by freeze thaw in lysis buffer (1× PBS, 2 mM DTT, 0.01% Triton X-100, proteases inhibitors (Sigma, P2714 and 11836170001), phosphatase inhibitors (Sigma, P5726 and P0044), 5 nM Calyculin A (Sigma, C5552)) at 85 µL of buffer to 1 × 10^6 cells. Lysates were clarified by centrifugation at 20,000 × g for 20 min at 4 °C and the supernatant was collected for subsequent use. Purified Myc/FLAG-tagged wild-type β-catenin protein at 2 µM was pretreated with 1 µM GSK3β (EMD Millipore, 14-306), 50 nM Axin (Enzo Life Sciences, ENZ-PRT130-0020), 200 nM CK1α (Life Technologies, PV3850), and 2 mM ATP at 30 °C for 60 min. This phosphorylated β-catenin, unphosphorylated WT β-catenin, or S33E/S37A β-catenin were each diluted into lysate to 100 nM, at the indicated compound concentrations, at a final DMSO concentration of 1% DMSO. Thirty-five microliters of these mixtures were incubated over 10 µL of anti-c-myc magnetic beads (Pierce, Catalog #PI88842), with rotation, at room temperature for 2 h. Beads were then pelleted, washed twice with 200 µL cold wash buffer (1×PBS, 2 mM DTT, 0.01% TX-100, 1% DMSO) containing compound at the same incubation concentration. Washed beads were resuspended in 30 µL SDS loading dye and analyzed by western analysis.

[7] = molecular target: T6, S33E/S37A β-catenin:β-TrCP interaction; test: Pull down from HEK293T cells treated with compound; type: cell-based; conditions: 50 μM, 6 h
Protocol: Pull down from cells treated with compound: HEK293T cells were plated in 10 cm dishes at a density of 1.2 × 10^6 cells per plate. Cells were transfected 24 h later with 2.5 µg of a WT or S33E/S37A Myc/FLAG-tagged β-catenin expression construct using the transfection reagent FuGeneHD. […] Cells were then liberated from 10 cm dishes using a cell scraper, pelleted, washed with PBS, resuspended in an equal volume of hypotonic lysis buffer (20 mM HEPES 7.5, 5 mM KCl, 1.5 mM MgCl2, 2 mM DTT, 0.01% TX-100, protease and phosphatase inhibitors, 1% DMSO), and sheered by eight passages through 21 G and 25 G needles. Samples were then supplemented up to 150 mM NaCl and clarified by centrifugation. Thirty microliters of each lysate was incubated over 10 µL of anti-c-myc magnetic beads (Pierce, Catalog #PI88842) and incubated at room temp with rotation for 30 min. Beads were pelleted, washed twice with lysis buffer, and resuspended in SDS loading buffer. Samples were analyzed by western blot.

T4 sequence (Q9Y297 1-569 isoform Q9Y297-2, stated change not applied): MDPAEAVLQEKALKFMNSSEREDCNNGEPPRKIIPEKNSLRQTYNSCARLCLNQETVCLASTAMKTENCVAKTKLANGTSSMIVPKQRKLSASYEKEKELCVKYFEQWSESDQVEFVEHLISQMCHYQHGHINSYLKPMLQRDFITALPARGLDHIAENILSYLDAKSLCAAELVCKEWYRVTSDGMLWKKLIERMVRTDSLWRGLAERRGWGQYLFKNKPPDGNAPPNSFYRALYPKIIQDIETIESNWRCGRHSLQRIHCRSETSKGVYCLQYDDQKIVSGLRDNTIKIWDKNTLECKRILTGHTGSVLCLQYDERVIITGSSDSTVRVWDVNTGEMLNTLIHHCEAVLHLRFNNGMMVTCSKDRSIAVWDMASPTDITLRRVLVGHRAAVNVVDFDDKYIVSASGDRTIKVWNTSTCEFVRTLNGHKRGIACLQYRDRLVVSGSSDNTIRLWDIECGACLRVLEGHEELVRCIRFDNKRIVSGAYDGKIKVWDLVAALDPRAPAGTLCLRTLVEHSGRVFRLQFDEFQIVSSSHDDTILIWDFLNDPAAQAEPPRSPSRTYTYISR
T4 sequence (P63208 whole entry partner): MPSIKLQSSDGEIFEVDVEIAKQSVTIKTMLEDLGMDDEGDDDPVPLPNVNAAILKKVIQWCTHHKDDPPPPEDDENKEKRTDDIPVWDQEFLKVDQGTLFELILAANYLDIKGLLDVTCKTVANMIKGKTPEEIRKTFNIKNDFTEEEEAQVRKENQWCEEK
T4 sequence (Q13616 whole entry partner): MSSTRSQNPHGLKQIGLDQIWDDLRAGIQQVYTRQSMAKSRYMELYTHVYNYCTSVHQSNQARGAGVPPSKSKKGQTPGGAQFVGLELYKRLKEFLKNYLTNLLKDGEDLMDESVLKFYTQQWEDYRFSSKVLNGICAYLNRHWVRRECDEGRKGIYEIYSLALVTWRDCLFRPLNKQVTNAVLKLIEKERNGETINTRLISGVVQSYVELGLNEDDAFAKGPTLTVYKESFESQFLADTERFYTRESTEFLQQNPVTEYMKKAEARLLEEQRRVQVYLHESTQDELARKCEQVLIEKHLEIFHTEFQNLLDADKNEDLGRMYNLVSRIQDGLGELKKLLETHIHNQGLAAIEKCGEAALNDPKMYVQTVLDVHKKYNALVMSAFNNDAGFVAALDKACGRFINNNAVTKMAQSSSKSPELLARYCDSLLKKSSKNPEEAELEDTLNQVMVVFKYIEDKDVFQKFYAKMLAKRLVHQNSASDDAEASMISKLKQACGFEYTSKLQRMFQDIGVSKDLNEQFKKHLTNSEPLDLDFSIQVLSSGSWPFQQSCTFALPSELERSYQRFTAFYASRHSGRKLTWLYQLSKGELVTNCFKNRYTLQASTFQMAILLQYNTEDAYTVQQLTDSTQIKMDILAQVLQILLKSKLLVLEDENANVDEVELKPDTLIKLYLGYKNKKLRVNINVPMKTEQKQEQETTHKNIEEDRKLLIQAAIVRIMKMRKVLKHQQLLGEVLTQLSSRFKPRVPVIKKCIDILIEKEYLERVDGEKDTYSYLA
T4 sequence (P62877 whole entry partner): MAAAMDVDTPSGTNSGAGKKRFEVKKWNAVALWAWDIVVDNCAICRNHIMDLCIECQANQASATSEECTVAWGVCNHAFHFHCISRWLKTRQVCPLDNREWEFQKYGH
T4 sequence (Q15843 1-76 partner limits assumed): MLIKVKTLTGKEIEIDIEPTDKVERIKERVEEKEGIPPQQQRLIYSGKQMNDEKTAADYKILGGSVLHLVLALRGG
T4 sequence (P35222 whole entry S37A): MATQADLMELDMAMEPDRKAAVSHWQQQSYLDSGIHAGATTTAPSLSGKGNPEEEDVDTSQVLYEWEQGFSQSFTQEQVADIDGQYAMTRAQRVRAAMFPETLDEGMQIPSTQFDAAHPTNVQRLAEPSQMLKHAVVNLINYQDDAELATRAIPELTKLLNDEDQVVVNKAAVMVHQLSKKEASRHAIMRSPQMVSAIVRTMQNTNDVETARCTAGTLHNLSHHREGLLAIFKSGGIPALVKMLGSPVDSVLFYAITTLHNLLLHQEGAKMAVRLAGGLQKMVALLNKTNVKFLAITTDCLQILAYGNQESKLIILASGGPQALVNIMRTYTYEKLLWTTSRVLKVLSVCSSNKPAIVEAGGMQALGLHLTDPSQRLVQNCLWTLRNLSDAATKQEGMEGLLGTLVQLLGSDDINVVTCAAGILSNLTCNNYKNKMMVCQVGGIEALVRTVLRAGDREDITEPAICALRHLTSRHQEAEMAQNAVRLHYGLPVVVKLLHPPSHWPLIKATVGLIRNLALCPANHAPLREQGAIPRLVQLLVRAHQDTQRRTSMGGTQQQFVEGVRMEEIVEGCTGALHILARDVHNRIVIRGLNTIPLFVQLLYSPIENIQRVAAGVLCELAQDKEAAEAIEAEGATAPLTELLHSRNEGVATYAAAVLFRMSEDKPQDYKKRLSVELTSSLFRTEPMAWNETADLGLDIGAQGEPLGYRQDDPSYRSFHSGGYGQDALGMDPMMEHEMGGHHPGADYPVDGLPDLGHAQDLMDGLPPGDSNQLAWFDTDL
T6 sequence (P35222 whole entry S33E/S37A): as the sequence (P35222 whole entry S37A) above, with S33E counted along it
T6 sequence (Q9Y297 whole entry, stated change not applied): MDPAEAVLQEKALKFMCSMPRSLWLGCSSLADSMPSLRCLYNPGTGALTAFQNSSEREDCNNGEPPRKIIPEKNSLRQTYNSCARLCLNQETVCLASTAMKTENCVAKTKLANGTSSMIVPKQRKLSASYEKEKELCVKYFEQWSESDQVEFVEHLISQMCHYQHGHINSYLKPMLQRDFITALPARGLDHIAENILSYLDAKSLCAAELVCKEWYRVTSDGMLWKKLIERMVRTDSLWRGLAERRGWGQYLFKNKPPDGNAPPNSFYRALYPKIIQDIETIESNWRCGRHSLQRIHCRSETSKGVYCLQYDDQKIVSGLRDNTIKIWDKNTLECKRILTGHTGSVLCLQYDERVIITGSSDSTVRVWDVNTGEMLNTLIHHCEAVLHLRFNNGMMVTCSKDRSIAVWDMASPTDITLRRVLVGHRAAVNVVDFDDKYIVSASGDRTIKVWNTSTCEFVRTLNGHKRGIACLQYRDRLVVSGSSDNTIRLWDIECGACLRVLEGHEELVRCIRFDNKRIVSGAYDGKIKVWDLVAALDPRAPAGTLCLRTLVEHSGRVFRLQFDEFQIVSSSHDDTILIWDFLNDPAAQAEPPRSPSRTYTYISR
T6 sequence (P63208 whole entry partner): as the sequence (P63208 whole entry partner) above
T1 sequence (Q9Y297 1-569 isoform Q9Y297-2, stated change not applied): as the sequence (Q9Y297 1-569 isoform Q9Y297-2, stated change not applied) above
T1 sequence (P63208 whole entry partner, the tested form may be a part): as the sequence (P63208 whole entry partner) above
T1 sequence (P35222 17-48 S37A limits assumed): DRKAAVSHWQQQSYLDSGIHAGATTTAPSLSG
T2 sequence (Q9Y297 1-569 isoform Q9Y297-2, stated change not applied): as the sequence (Q9Y297 1-569 isoform Q9Y297-2, stated change not applied) above
T2 sequence (P63208 whole entry partner, the tested form may be a part): as the sequence (P63208 whole entry partner) above
T2 sequence (P35222 17-48 S33E/S37A limits assumed): as the sequence (P35222 17-48 S37A limits assumed) above, with S17E counted along it
T3 sequence (Q9Y297 1-569 isoform Q9Y297-2, stated change not applied): as the sequence (Q9Y297 1-569 isoform Q9Y297-2, stated change not applied) above
T3 sequence (P63208 whole entry partner, the tested form may be a part): as the sequence (P63208 whole entry partner) above
T3 sequence (Q13616 whole entry partner, the tested form may be a part): as the sequence (Q13616 whole entry partner) above
T3 sequence (P62877 whole entry partner, the tested form may be a part): as the sequence (P62877 whole entry partner) above
T3 sequence (Q15843 1-76 partner limits assumed): as the sequence (Q15843 1-76 partner limits assumed) above
T3 sequence (P35222 17-60 S37A limits assumed): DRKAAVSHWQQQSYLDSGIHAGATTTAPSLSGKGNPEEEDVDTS
T5 sequence (P35222 whole entry S37A): as the sequence (P35222 whole entry S37A) above
T5 sequence (Q9Y297 whole entry): as the sequence (Q9Y297 whole entry, stated change not applied) above
T5 sequence (P63208 whole entry partner): as the sequence (P63208 whole entry partner) above
T5 sequence (Q13616 whole entry partner): as the sequence (Q13616 whole entry partner) above
T5 sequence (P62877 whole entry partner): as the sequence (P62877 whole entry partner) above
T5 sequence (Q15843 1-76 partner limits assumed): as the sequence (Q15843 1-76 partner limits assumed) above

## N#Cc1cccc2c1CN(C(=O)c1c(Sc3c(Cl)cccc3Cl)cc(C(F)(F)F)[nH]c1=O)C2 [NRX-252114]
[1]
  cooperativity of peptide binding to β-TrCP: > 1500 fold
[2]
  EC50: 1100 ± 30 nM
[3]
  enhancement of ubiquitylation of pSer33/S37A β-catenin peptide: further enhances
[4]
  ubiquitylation of full-length Ser33/S37A β-catenin, comparison of enhancers: higher degree of ubiquitylation than NRX-103094
[4]; 40 μM compound
  level of ubiquitylation of full-length Ser33/S37A β-catenin: approaches that of WT full-length protein
[5]
  degradation of endogenous S37A mutant β-catenin: did not induce degradation
[6]
  interaction of S33E/S37A β-catenin with endogenous β-TrCP in cell lysate: dose-dependent interaction
[7]
  S33E/S37A β-catenin:β-TrCP interaction in transfected cells: robust S33E/S37A β-catenin:β-TrCP interaction
